Source: patent US20070128217A1 (priority 2003, published 2007)

Tests used:
[1] = test system: antibodies in sera from SARS patients (sera 1a, 1b, 2, 6, 37, 62, London, SARS-yellow, SARS-green); type: binding, human; set-up: Binding of serum 6 to linear peptides of protein X1 of SARS-CoV Urbani / Binding of serum 37 to linear peptides of protein X1 of SARS-CoV Urbani / Binding of serum 6 to looped/cyclic peptide (PEPSCAN-ELISA) / Binding of serum 37 to looped/cyclic peptide (PEPSCAN-ELISA) / Binding of serum 37 to looped/cyclic peptides of protein X1 of SARS-CoV Urbani / Binding of serum 6 to linear peptides of protein X2 / Binding of serum 37 to linear peptides of protein X2 / Binding of serum 37 to looped/cyclic peptides of protein X2 of SARS-CoV Urbani / Binding of serum 6 to linear peptides of protein M of SARS-CoV Urbani / Binding of serum 37 to linear peptides of protein M of SARS-CoV Urbani / Binding of serum 6 to looped/cyclic peptides of protein M of SARS-CoV Urbani / Binding of serum 37 to looped/cyclic peptides of protein M of SARS-CoV Urbani / Binding of serum 6 to linear peptides of protein X3 of SARS-CoV Urbani / Binding of serum 37 to linear peptides of protein X3 of SARS-CoV Urbani / Binding of serum 37 to looped/cyclic peptides of protein X3 of SARS-CoV Urbani / Binding of serum 6 to linear peptides of protein X4 of SARS-CoV Urbani / Binding of serum 37 to linear peptides of protein X4 of SARS-CoV Urbani / Binding of serum 37 to looped/cyclic peptides of protein X4 of SARS-CoV Urbani / Binding of serum 6 to linear peptides of protein X5 of SARS-CoV Urbani / Binding of serum 37 to linear peptides of protein X5 of SARS-CoV Urbani / Binding of serum 37 to looped/cyclic peptides of protein X5 of SARS-CoV Urbani / Binding of serum 6 to linear peptides of protein N of SARS-CoV Urbani / Binding of serum 37 to linear peptides of protein N of SARS-CoV Urbani / Binding of serum 6 to linear peptide (PEPSCAN-ELISA) / Binding of serum 1a to looped/cyclic peptides of protein N of SARS-CoV Urbani / Binding of serum 1b to looped/cyclic peptides of protein N of SARS-CoV Urbani / Binding of serum 2 to looped/cyclic peptides of protein N of SARS-CoV Urbani / Binding of serum 6 to looped/cyclic peptides of protein N of SARS-CoV Urbani / Binding of serum 37 to looped/cyclic peptides of protein N of SARS-CoV Urbani / Binding of serum 62 to looped/cyclic peptides of protein N of SARS-CoV Urbani / Binding of serum London to looped/cyclic peptides of protein N of SARS-CoV Urbani / Binding of serum SARS-green to looped/cyclic peptides of protein N of SARS-CoV Urbani: unit not given here
[2] = test system: control sera (pooled serum of ten healthy LUMC hospital workers; commercial negative donor pooled serum from the Dutch bloodbank); type: binding, human; set-up: Binding of Control serum LUMC to linear peptides / Binding of Control serum Blood-bank to linear peptides / Binding of Control serum LUMC to looped peptides / Binding of Control Serum Blood-Bank to Looped peptides / Binding of Control serum LUMC to linear peptides of the protein M of SARS-CoV Urbani / Binding of Control serum Blood-bank to linear peptides of the protein M of SARS-CoV Urbani / Binding of Control serum LUMC to looped peptides of the protein M of SARS-CoV Urbani / Binding of Control Serum Blood-Bank to Looped peptides of the protein M of SARS-CoV Urbani: unit not given here
[3] = test system: rabbit serum obtained by immunizing a rabbit with the SARS-CoV strain Frankfurt 1; type: binding; set-up: Binding of a rabbit serum to linear peptides / Binding of a rabbit serum to looped peptides / Rabbit serum linear peptides / Rabbit serum looped peptides / Binding of a rabbit serum to linear peptides of protein N of SARS-CoV Urbani (Rabbit serum linear peptides) / Binding of a rabbit serum to looped/cyclic peptides of protein N of SARS-CoV Urbani (Rabbit serum looped peptides): unit not given here

WIMLLQFAYSNRNRF
Binding of serum 1a to linear peptides of protein M of SARS-CoV Urbani [1]: 0.6
Binding of serum 1a to looped/cyclic peptides of protein M of SARS-CoV Urbani [1]: 0.7
Binding of serum 1b to linear peptides of protein M of SARS-CoV Urbani [1]: 0.5
Binding of serum 1b to looped/cyclic peptides of protein M of SARS-CoV Urbani [1]: 0.6
Binding of serum 2 to linear peptides of protein M of SARS-CoV Urbani [1]: 0.5
Binding of serum 2 to looped/cyclic peptides of protein M of SARS-CoV Urbani [1]: 0.4
Binding of serum 6 to linear peptides of protein M of SARS-CoV Urbani [1]: 0.3
Binding of serum 6 to looped/cyclic peptides of protein M of SARS-CoV Urbani [1]: 0.8
Binding of serum 37 to linear peptides of protein M of SARS-CoV Urbani [1]: 0.7
Binding of serum 37 to looped/cyclic peptides of protein M of SARS-CoV Urbani [1]: 0.4
Binding of serum 62 to linear peptides of protein M of SARS-CoV Urbani [1]: 0.7
Binding of serum 62 to looped/cyclic peptides of protein M of SARS-CoV Urbani [1]: 0.6
Binding of serum London to linear peptides of protein M of SARS-CoV Urbani [1]: 0.3
Binding of serum London to looped/cyclic peptides of protein M of SARS-CoV Urbani [1]: 0.2
Binding of serum SARS-green to linear peptides of protein M of SARS-CoV Urbani [1]: 0.3
Binding of serum SARS-green to looped/cyclic peptides of protein M of SARS-CoV Urbani [1]: 0.2
Binding of serum SARS-yellow to linear peptides of protein M of SARS-CoV Urbani [1]: 0.1
Binding of serum SARS-yellow to looped/cyclic peptides of protein M of SARS-CoV Urbani [1]: 0.3
Binding of Control Serum Blood-Bank to Looped peptides of the protein M of SARS-CoV Urbani [2]: 0.7
Binding of Control serum Blood-bank to linear peptides of the protein M of SARS-CoV Urbani [2]: 0.7
Binding of Control serum LUMC to linear peptides of the protein M of SARS-CoV Urbani [2]: 0.3
Binding of Control serum LUMC to looped peptides of the protein M of SARS-CoV Urbani [2]: 0.7
Rabbit serum linear peptides [3]: 0.8
Rabbit serum looped peptides [3]: 0.3

ATIPLQASLPFGWLV
Binding of serum 1a to linear peptides of protein X1 of SARS-CoV Urbani [1]: 0.7
Binding of serum 1a to looped/cyclic peptide (PEPSCAN-ELISA) [1]: 0.6
Binding of serum 1b to linear peptides of protein X1 of SARS-CoV Urbani [1]: 0.5
Binding of serum 1b to looped/cyclic peptide (PEPSCAN-ELISA) [1]: 0.5
Binding of serum 2 to linear peptides of protein X1 of SARS-CoV Urbani [1]: 0.6
Binding of serum 2 to looped/cyclic peptide (PEPSCAN-ELISA) [1]: 0.6
Binding of serum 6 to linear peptides of protein X1 of SARS-CoV Urbani [1]: 0.6
Binding of serum 6 to looped/cyclic peptide (PEPSCAN-ELISA) [1]: 0.4
Binding of serum 37 to linear peptides of protein X1 of SARS-CoV Urbani [1]: 0.7
Binding of serum 37 to looped/cyclic peptide (PEPSCAN-ELISA) [1]: 0.7
Binding of serum 62 to linear peptides of protein X1 of SARS-CoV Urbani [1]: 0.7
Binding of serum 62 to looped/cyclic peptide (PEPSCAN-ELISA) [1]: 0.7
Binding of serum London to linear peptides of protein X1 of SARS-CoV Urbani [1]: 0.3
Binding of serum London to looped/cyclic peptide (PEPSCAN-ELISA) [1]: 0.3
Binding of serum SARS-green to linear peptides of protein X1 of SARS-CoV Urbani [1]: 0.2
Binding of serum SARS-green to looped/cyclic peptide (PEPSCAN-ELISA) [1]: 0.4
Binding of serum SARS-yellow to linear peptides of protein X1 of SARS-CoV Urbani [1]: 0.3
Binding of serum SARS-yellow to looped/cyclic peptide (PEPSCAN-ELISA) [1]: 0.3
Binding of Control Serum Blood-Bank to Looped peptides [2]: 0.7
Binding of Control serum Blood-bank to linear peptides [2]: 0.8
Binding of Control serum LUMC to linear peptides [2]: 0.5
Binding of Control serum LUMC to looped peptides [2]: 0.7
Binding of a rabbit serum to linear peptides [3]: 0.1
Binding of a rabbit serum to looped peptides [3]: 0.5
